Measurements reported in US10858386B2, “Drug compound and purification methods thereof” (Otsuka Pharmaceutical Co., Ltd., priority 2017, dated 2020).
Where “and” joins values, the source holds several entries; their conditions need not be identical. Equal entries are not always repeated.

Key:
Format in all cases: physicochemical
[1] = Thermogravimetric analysis (TGA) weight loss of the lyophilized product
Source text: TGA can be used as a corroborative method for residual moisture determination where the change in weight is attributed to the evolution of volatile substances, such as water. In addition, TGA can be used to deter mine physico-chemical changes as the specimen begins to decompose at elevated temperatures.
TGA monitors the change in weight of a material as a function of temperature or time with heating. The analysis can be performed using a TA Instruments QSO per USP 891, Thermal Analysis. Test parameters and data analysis can conducted using TA Instruments Universal Analysis® software version 4.5A on a PC interface.
Solid material, with a weight of about 13 mg to about 19 mg, can be placed in an open ceramic sample pan. The sample is then heated from 25° C. to 400° C. using a warming rate of about 10° C. per minute to measure the weight loss across the temperature range. Nitrogen, NF is used to purge the sample continuously at a flow rate of 60 mL/minute. The instrument is calibrated at temperatures that span the range of high temperature analysis.
The lyophilized material is warmed and the sample weight can be monitored for any change. During warming, weight loss is correlated to the evolution of volatile components in the sample. Calculations identify the sample weight correlated to a temperature.

[2] = Reconstitution time of the lyophilized product in the diluent (65% propylene glycol, 25% glycerin, 10% ethanol); settings: 1 mL diluent
Source text: (§1) The requirements of a constituted solution are that there is no visible insoluble material and the solution is no less clear than the diluent after a predetermined amount of time. The volume for reconstitution can return the product to the same volume and concentration as the bulk solution used for filling or may be the volume intended for patient delivery in a clinical setting.
For reconstitution, a specified volume of a diluent can be drawn up into a syringe. The diluent can then be extruded into the center of the dried cake of the product and the timer started. The product is then inspected at approximately 5 second intervals to determine the time material dissolved.
Reconstitution was performed by extruding 1 mL of diluent into each vial using a vial adapter or syringe and allowing the vials to sit undisturbed until clear.
(§2) Following lyophilization, the lyophilized samples were analysed for purity (% purity by HPLC), DMSO residual content, and residual moisture. The samples were reconstituted by dissolving them in the non-aqueous solvent system described in TABLE 11 below and the reconstitution time and appearance of the reconstituted formulations were analysed.

[3] = Turbidity of pooled reconstituted samples (Hach 2100AN turbidimeter, NTU)
Source text: Turbidity monitors the transmission of light through a liquid sample to determine whether the sample is clear or the degree of opalescence in the sample. The analysis can be performed using a Hach Model 2100AN Laboratory Turbidimeter. The Hach Model 2100AN is a ratio turbidimeter that uses the ratio of transmitted to scattered light to reduce error in the measurement caused by colored solutions.
Prior to each use, the Turbidimeter is calibrated with a Hach StabCal® Calibration Kit and then checked using Hach Gelex® Secondary Turbidity Standards. Sample cells are cleaned and oiled to reduce interference by dirt or imperfections in the glass. Sample cell indexing matches cells with similar interference for sample comparison.
Reconstituted samples can be pooled to achieve at least 2.5 mL of sample, which is placed in the indexed sample cells for analysis. The turbidimeter measures the opalescence and returns a value in nephelometric turbidity units (NTU) ratio. This value was recorded by the instrument with a time and date stamp to track each sample.

[4] = Appearance of the reconstituted solution
Procedure: as §1, §2

[5] = Example 8 Study E: low shelf temperature, low chamber pressure, 15 microns in secondary drying
[6] = Example 8 Study F: target parameters of TABLE 18
[7] = Example 8 Study E, 3 pooled samples per lot

| Weight Loss (% w/w), Total (TGA) ([1]; Example 8 Study F) | Average Recon Time (min) [2, 5] | Average Recon Time (min) [2, 6] | Turbidity (NTU) [3, 7] | TGA total weight loss ([1]; Example 2 full load, TABLE 6 cycle) | Weight Loss (% w/w), Total (TGA) ([1]; Example 8 Study B, vial 1 and 2) | Weight Loss (% w/w), Total (TGA) ([1]; Example 8 Study G, one vial) | TGA mass loss ([1]; Example 8 repeat of Study H, one vial) | Average Recon Time [2, 6] | Appearance of reconstituted solution ([4]; Example 7, lyophilization procedure of TABLE 16) | Appearance of reconstituted solution ([4]; Example 8 Study A) | Appearance of reconstituted solution ([4]; Example 8 Study B) | Appearance of reconstituted solution ([4]; Example 8 Study C) | Appearance of reconstituted solution ([4]; Example 8 Study D) | Appearance of reconstituted solution ([4]; Example 8 Study E) | Appearance of reconstituted solution ([4]; Example 8 Study F) | Appearance of reconstituted solution ([4]; Example 8 Study G) | Appearance of reconstituted solution ([4]; Example 8 Study H) | Appearance of reconstituted solution ([4]; Example 8 repeat of Study H) | Turbidity (NTU) ([3]; Example 8 Study G, 3 pooled samples) | Structure (SMILES) |
| --- | --- | --- | --- | --- | --- | --- | --- | --- | --- | --- | --- | --- | --- | --- | --- | --- | --- | --- | --- | --- |
| Total: 19.82 % w/w | Lot 2: 17 min | Lot 2: 18 min | 0.795 NTU and 0.808 NTU and 0.867 NTU | – | – | – | – | – | – | – | – | – | – | – | – | – | – | – | – | Nc1ncn(C2CC(OP(=O)([O-])OCC3OC(n4cnc5c(=O)[nH]c(N)nc54)CC3O)C(CO)O2)c(=O)n1.[Na+] (stereo not drawn) [Lot 2] |
| approximately 19 % w/w | – | – | below 3 NTU | 17% | 17.35 % w/w and 18.07 % w/w | approximately 17 % w/w | about 17 % w/w | 17 to 18 min | clear reconstituted solution | clear and colorless solutions | clear and colorless solutions | clear and colorless solutions | clear and colorless solutions | clear and colorless solutions | clear and colorless solutions | clear and colorless solutions | clear and colorless solutions | clear and colorless solutions | 16.9 NTU and 16 NTU and 19 NTU | Nc1ncn([C@H]2CC(OP(=O)(O)OC[C@H]3O[C@@H](n4cnc5c(=O)[nH]c(N)nc54)CC3O)[C@@H](CO)O2)c(=O)n1 (stereo partly drawn) [compound of Formula (1)] |
| Total: 18.93 % w/w | Lot 1: 17 min | Lot 1: 17.3 min | 0.799 NTU and 0.833 NTU and 0.756 NTU | – | – | Total: 16.7 % w/w | – | – | – | – | – | – | – | – | – | – | – | – | – | Nc1ncn(C2CC(OP(=O)([O-])OCC3OC(n4cnc5c(=O)[nH]c(N)nc54)CC3O)C(CO)O2)c(=O)n1.[Na+] (stereo not drawn) [Lot 1] |
